The source of these data is patent US20140128357A1, “METHODS OF PRODUCING AND USING BRASSINOSTEROIDS TO PROMOTE GROWTH, REPAIR AND MAINTENANCE OF SKELETAL MUSCLE AND SKIN” (Rutgers University, priority 2010, published 2014).

In assay [1] the target is T1, rat nuclear androgen receptor (Rattus norvegicus, UniProt P15207).
T1 construct: MDS Pharma Services (Taiwan), the contract laboratory that ran the assay
T1 sequence (P15207 1-902): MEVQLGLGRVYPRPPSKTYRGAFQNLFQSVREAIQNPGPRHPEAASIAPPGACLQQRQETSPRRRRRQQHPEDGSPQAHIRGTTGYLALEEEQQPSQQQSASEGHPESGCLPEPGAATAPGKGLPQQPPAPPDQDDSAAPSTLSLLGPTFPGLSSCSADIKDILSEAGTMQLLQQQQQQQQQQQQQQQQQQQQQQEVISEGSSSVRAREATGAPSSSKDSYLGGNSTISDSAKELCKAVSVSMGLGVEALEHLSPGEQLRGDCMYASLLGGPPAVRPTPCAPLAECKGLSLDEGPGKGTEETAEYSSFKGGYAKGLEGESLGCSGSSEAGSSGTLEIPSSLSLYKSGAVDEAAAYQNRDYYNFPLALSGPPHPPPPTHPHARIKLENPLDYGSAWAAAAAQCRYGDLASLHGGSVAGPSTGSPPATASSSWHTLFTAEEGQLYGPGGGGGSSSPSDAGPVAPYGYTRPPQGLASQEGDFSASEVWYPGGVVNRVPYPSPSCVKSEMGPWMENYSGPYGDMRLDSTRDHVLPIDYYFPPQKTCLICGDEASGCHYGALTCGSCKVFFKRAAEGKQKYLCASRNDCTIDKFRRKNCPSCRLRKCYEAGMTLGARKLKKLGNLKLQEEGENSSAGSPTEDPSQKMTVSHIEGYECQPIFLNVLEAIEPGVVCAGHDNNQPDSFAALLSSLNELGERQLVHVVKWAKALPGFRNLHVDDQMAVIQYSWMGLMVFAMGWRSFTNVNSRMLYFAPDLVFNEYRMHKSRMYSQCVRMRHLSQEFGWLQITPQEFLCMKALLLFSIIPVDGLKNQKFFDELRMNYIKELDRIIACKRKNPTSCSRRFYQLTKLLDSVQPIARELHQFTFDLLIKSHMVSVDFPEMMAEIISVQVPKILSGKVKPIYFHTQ
Kind of assay: Rat androgen receptor binding, [3H]-mibolerone displacement. As to conditions: 0.01 μM up to 10 μM. The method, then: Rat androgen receptor binding assays were performed by MDS Pharma Services (Taiwan) as described elsewhere (Chang et al., J. Steroid Biochem. 27:123-131, 1987), incorporated herein by reference.

The test system of assay [2] is cutaneous wound in C57BL/6J mice. Description: Mouse cutaneous injury model of wound healing. It is filed as in vivo. As to the method:
Under volatile anesthesia (5% isoflurane to effect), the shoulder and back region of each animal was shaved. A sharp punch (ID 6 mm) over their lumbar spine was applied to remove the skin, including panniculus carnosus and adherent tissues. Test substances were administered topically (TOP), immediately following cutaneous injury, once daily for 10 consecutive days. […] Wounds were traced onto clear plastic sheets and were measured by use of an ImageJ program (rsbweb.nih.gov/ij/), online from the National Institutes of Health (NIH). ImageJ is a public domain, Java-based image processing program developed at the NIH. Time to wound closure was estimated by comparing the area of the wound undergoing treatment to the areas of the wound undergoing control treatments. The percent closure of the wound (%) was calculated, and wound half-closure time (the time at which 50% of the cutaneous wound is closed, CT50) was analyzed by linear regression using Graph-Prism (Graph Software USA). At the end of experiment (10 days after the induction of the wound), animals were euthanized by CO2 gas inhalation. Blood was collected by heart puncture. Wound tissue and muscle were collected for immunohistochemical analyses and wound healing factor assays. HB increased the percent of wound closure in vivo in a mouse model of wound closure (FIG. 13). […] Twenty seven six-week-old male C57BL/6J mice, obtained from the Jackson Laboratory (Bar Harbor, Me.), were housed in individual chambers in a room maintained at a constant temperature with 12 h light-dark cycle. Mice had free access to food and water. Mice were allowed to adapt to new conditions for seven days and handling the mice was performed daily during this time to reduce the stress of physical manipulation. Mice were randomized into groups (n=9) according to body weight one day prior to dosing. Under volatile anesthesia (5% isoflurane to effect), the shoulder and back region of each animal was shaved. A sharp punch (ID 6 mm) over lumbar spine was applied to remove the skin including panniculus carnosus and adherent tissues. […] Pharmacol. 77: 1117-1124, 2009) as a positive control) was administered topically, immediately following cutaneous injury, and then daily for 10 days. To investigate the kinetics of wound healing, wound size was photographed and measured every two days with ImageJ software (rsbweb.nih.gov/ij/). […] The percent closure of the wound (%) was calculated, and time at which 50% of the cutaneous wound was closed (CT50) was analyzed by linear regression. […] Wound sizes were photographed and measured every 2 days for 10 days. Wound closure (%) relative to day 1 was determined every 2 days, and CT50 was calculated by linear regression. […]

Where [3] appears, read: 10 μg/mouse/day topically for 10 days.

For `CC[C@@H](C(C)C)[C@H](O)[C@@H](O)[C@@H](C)[C@H]1CC[C@H]2[C@@H]3COC(=O)[C@H]4C[C@H](O)[C@H](O)C[C@]4(C)[C@H]3CC[C@]12C` [Compound 1, (22S,23S,24S)-2α,3α,22,23-tetrahydroxy-24 ethyl-β-homo-7-oxo-5α-cholestane-6-one], the “binding to androgen receptor” value in assay [1] is given as “no significant binding”. In assay [2] (setting [3]), the “CT50, time at which 50% of the cutaneous wound is closed” value came to 5.4 ± 0.3 days and the “cutaneous wound healing compared with vehicle” value was “significantly improved”. Further, in assay [2] (10 μg/mouse/day topically, percent of original wound size), the “increase in speed of wound closure relative to control mice” value is listed as 2 fold.
